For one compound, solubility and solubility in water results are on record in patent publication US20090011007A1, “Pharmaceutical Compositions Containing Mixtures of Polymers and Active Agents Poorly Soluble in Water” (Evonik Roehm GmbH, priority 2006, published 2009).

≈ marks a conversion by molar mass, not a printed value.

Data set [1] can be described thus: Determination of the solubility of felodipine at pH 1.2 (orbital shaker, 24 hours, SGFsp, HPLC). The class given is physicochemical. To be noted: SGFsp medium buffered to pH 1.2, simulated gastric fluid, thermodynamic from solid, SGFsp pH 1.2, 37° C., 10 mg in 20 ml, read-out: solubility of felodipine alone at pH 1.2. As for the experimental part:
Felodipine has a solubility in water of <1 mg/l […]. The solubility for felodipine was determined for comparison in a medium buffered to pH 1.2 (SGFsp pH 1.2). For this purpose, 10 mg were kept in motion at 37° C. on an orbital shaker in 20 ml of medium for 24 hours. The concentration was determined by means of HPLC. For felodipine alone, without inventive formulation, a solubility of 0.5 mg/l was determined.

The conditions of data set [2]: cited from earlier work.

As usually defined, the solubility is the concentration that dissolves in the medium under given conditions. Consider `CCOC(=O)C1=C(C)NC(C)=C(C(=O)OC)C1c1cccc(Cl)c1Cl` (centres unmarked) [felodipine alone, felodipine], for which, in data set [1], the solubility at 24 h is 0.5 µg/mL (≈ 1.3 µM). Also, the solubility in water in data set [2] is < 1 µg/mL.
